In patent US8575215B2, “Treatment of neurodegenerative and cardiovascular disorders” (priority 2001, dated 2013):

Legend:
[1] = test system: cerebellar granule neurons (CGN) culture; assay: NO-induced cell death on cultured neurons; assay type: cell-based; details: Neuron, cell death induced by nitric oxide, concentration-dependent, read-out: IC50 for blocking nitric oxide-induced neuron cell death
Method: Efficacy of caffeic acid phenethyl ester on treating neurodegenerative disorders as well as other disorders related to NO-induced cell death was assessed by testing its ability to block NO-induced cell death on cultured neurons according to a method described in Du, et al., Proc Natl Acad Sci, 2001, 98, 14669-14674.

[2] = test system: cerebellar granule neurons (CGN) culture; assay: 6-hydroxydopamine-induced neurotoxicity on cultured neurons; assay type: cell-based; details: 6-hydroxydopamine used to induce neurotoxicity
[3] = test system: TH-positive neurons in the substantia nigra pars compacta (SNpc); assay: MPTP mouse model, stereological count of TH-positive neurons in SNpc; assay type: in vivo, mice
Method: Caffeic acid phenethyl ester was evaluated for its efficacy in treating a neurodegenerative disorder in mice. Three groups of eight-week-old male C57B1/6 mice (Taconic Farms Inc., Germantown, N.Y.), 5-7 per group, were used. A group of mice were administered for 9 days with caffeic acid phenethyl ester (5 or 20 mg/kg/day in 10% alcohol by oral gavage, or 40 mg/kg/day in 10% alcohol by intraperitoneal injection). As a control, a second group of mice were administered with 10% alcohol free of caffeic acid phenethyl ester. These two groups of mice then received four intraperitoneal injections of 1-methyl-4-phenyl-1,2,3,6-tetrahydropyridine (“MPTP”)-HCl (20 mg/kg of free base) in saline at 2 hour intervals in a single day, as described in Liberatore, et al., Nat Med, 1999, 5, 1403-1409. Seven days after the last administration of MPTP, the mice were anesthetized by halothane inhalation. […] They were then incubated with rabbit polyclonal anti-tyrosine hydroxylase (anti-TH) antibody (1:2,500, CALBIOCHEM, La Jolla, Calif.), goat biotinylated-conjugated polyclonal anti-rabbit antibody (1:250; Vector Laboratories, Burlingame, Calif.), horseradish-peroxidase conjugated avidin/biotin complex (VECTASTAIN ABC Reagent, Vector Laboratories), and successively exposed to diaminobenzidine for TH-immunohistochemistry analysis and stereological quantification of TH-positive neurons. […]

[4] = test system: striatal levels of dopamine, DOPAC and HVA; assay: MPTP mouse model, striatal levels of dopamine and metabolites by HPLC; assay type: in vivo, mice; details: 40 mg/kg intraperitoneally, 48 hours after MPTP
Method: Caffeic acid phenethyl ester was evaluated for its efficacy in treating a neurodegenerative disorder in mice. Three groups of eight-week-old male C57B1/6 mice (Taconic Farms Inc., Germantown, N.Y.), 5-7 per group, were used. A group of mice were administered for 9 days with caffeic acid phenethyl ester (5 or 20 mg/kg/day in 10% alcohol by oral gavage, or 40 mg/kg/day in 10% alcohol by intraperitoneal injection). As a control, a second group of mice were administered with 10% alcohol free of caffeic acid phenethyl ester. These two groups of mice then received four intraperitoneal injections of 1-methyl-4-phenyl-1,2,3,6-tetrahydropyridine (“MPTP”)-HCl (20 mg/kg of free base) in saline at 2 hour intervals in a single day, as described in Liberatore, et al., Nat Med, 1999, 5, 1403-1409. The striatal levels of dopamine and its metabolites, dihydroxyphenylacetic acid (DOPAC) and homovanillic acid (HVA), were also determined by HPLC with electrochemical detector. See, e.g., Du, et al., Proc Natl Acad Sci, 2001, 98, 14669-14674.

[5] = test system: isolated working rabbit heart; assay: Isolated working rabbit heart model of ischaemia; assay type: in vivo; details: 30 mg/kg intraperitoneal injection, p<0.05
Method: An isolated working rabbit heart model was use to define the cardioprotective effects (function, metabolic and ultrastructure) of caffeic acid phenethyl ester during ischaemia by the method described in Choong, et al., J Cardiovasc Surg (Torino), 1993 October, 34(5):423-433. More specifically, hearts (n=7 for each group) were arrested with and exposed to reinfusion (45 min) throughout the ischaemic period with a cold (4° C.) cardioplegic solution. […] The release of lactate dehydrogenase decreased during 40-minute ischaemic arrest (55.14+/-8.65 vs 19.33+/-7.4 IU/L perfusate for control and treatment, respectively; p<0.05). See […] et al., J Cardiovasc Pharmacol, 1999 October; 34(4):604-611.

Compound: O=C(/C=C/c1ccc(O)c(O)c1)OCCc1ccccc1 [caffeic acid phenethyl ester]
- IC50 [1]: ~1000 nM
- neuroprotective effect against 6-hydroxydopamine-induced neurotoxicity [2]: neuroprotective effect
- number of TH-positive neurons in SNpc, as compared with saline-only mice ([3]; C57B1/6 mice, 5 or 20 mg/kg/day oral or 40 mg/kg/day i.p. for 9 days, then MPTP 4x20 mg/kg, 7 days after MPTP, MPTP control approximately 49%): up to 100%
- effect of compound alone on number of TH-positive neurons ([3]; treatment alone for nine days, no MPTP): did not significantly alter
- MPTP-induced reduction of striatal HVA level ([4]; MPTP control decreased by 35%): 16%
- MPTP-induced reduction of striatal DOPAC level ([4]; MPTP control decreased by 46%): −2%
- MPTP-induced reduction of striatal dopamine level ([4]; MPTP control decreased by 62%): 3%
- postischaemic recovery of cardiac output ([5]; n=7, control 71.48+/−9.66%): 90.83+/−3.2%
- release of lactate dehydrogenase during 40-minute ischaemic arrest ([5]; control 55.14+/−8.65): 19.33+/−7.4 IU/L perfusate
